Results taken from US20260207568A1, “COMPOSITIONS AND METHODS FOR IMPROVING NEUROLOGICAL DISEASES AND DISORDERS” (CuraSen Therapeutics, Inc., priority 2022, published 2026).
“Also recorded” adds a separate entry of the source.

What was measured:
healthy volunteers [1] = assay: Peripheral effects of Compound 03-5 (heart rate, glucose, potassium, tachycardia, tremor, palpitations) with nadolol; assay type: in vivo, human
Protocol: Data are presented as individual observations for all available subjects.
(§1) On all dosing days, study drug(s) were administered orally after an overnight fast of at least 8 hours.
(§2) Routine measures of ECG, vital signs, safety labs, physical exams and plasma sample collections for analysis of drug pharmacokinetics (PK) were undertaken according to the Schedule of Events (Table 1).
(§3) In Cohort D2, 8 healthy volunteers aged 55-75 years were admitted on Day −1 for a 5-day confinement period at the research facility. […] Subjects remained in-residency until all study procedures are completed on Day 4. • ? Compound 03-5 dose administration. Compound 03-5 was administered as escalating doses on Day 1 (1 mg), Day 2 (3 mg) and Day 3 (10 mg). CANTAB was conducted twice in all subjects on the day prior to start of dosing (Day −1) to familiarize subjects with the platform, and prior to dosing and approximately 3 hours after Compound 03-5 administration on Days 1, 2, and 3.

[2] = system: healthy volunteers aged 55-75 years; assay: CANTAB cognition battery, Cohort D2; assay type: in vivo, human; conditions: Compound 03-5 1, 3, 10 mg once daily, 2 h after 3 mg nadolol
Protocol: Data are presented as mean changes from the within-day pre-dose assessment.
as §3

healthy volunteers [3] = assay: Heart rate by triplicate ECG, Compound 03-5 with or without nadolol; assay type: in vivo, human; conditions: 6 mg Compound 03-5 after pre-administration of 1 mg nadolol
Protocol: Heart rate was measured by triplicate ECG recordings. Data are presented as means changes from time-matched measures recorded on the day before the first dose of study drug (Day −1).
as §1, §2

subjects with MCI or PD = assay: Cerebral blood flow by ASL MRI in subjects with MCI or PD (Example 6); assay type: in vivo, human; conditions: for CBF MRD in the hippocampus, repeat dose comparison: 80 μg clenbuterol without nadolol; for CBF mean (±SEM) MRD in hippocampus / CBF mean (±SEM) MRD in whole brain: Day 9, N=4
[4] = system: healthy volunteers and subjects with MCI or PD; assay: Safety and tolerability (TEAEs, heart rate, blood pressure, labs), Example 6; conditions: for mean increase in supine heart rate from baseline: no nadolol
Protocol: (§5) Safety and tolerability were evaluated by questioning for adverse events (AEs), triplicate 12-lead ECGs, laboratory safety tests on urine and blood with multiple chemistry panels including potassium, blood glucose levels, vital sign measurements, and physical examinations at regular time-points during the study.

healthy subjects [5] = assay: Cognitive performance, CuraSen study CLIN-003; assay type: in vivo, human; conditions: daily dose of 80 μg CST-103, healthy subjects, preliminary data
From the text: (§4) It was hypothesized that by improving cerebral perfusion, particularly in areas of the brain that are relevant for symptoms that are commonly found in PD and MCI, the administration of a β-AR agonist would have a positive effect on clinically relevant symptoms such as memory and cognition.

healthy subjects [6] = assay: Cerebral perfusion by ASL MRI after single doses of clenbuterol (Example 3); assay type: in vivo, human
Protocol: In a clinical study, healthy subjects were administered doses of clenbuterol ranging from 20 to 160 μg and ASL MRI was conducted prior to and after dosing with an objective to ascertain whether this neuroimaging method enables the detection of a clinically relevant CNS signal.
In a region of interest (ROI) analysis focusing on the hippocampus, which is well understood to be affected in neurodegenerative disorders, a single dose of 80 μg of clenbuterol causes a robust increase in perfusion (see FIG. 7). […] Our hypothesis is that by improving cerebral perfusion, particularly in areas of the brain that are relevant for symptoms that are commonly found in neurodegenerative diseases such as PD and AD, the administration of a β-AR agonist (such as a β-agent) will have a positive effect on clinically relevant symptoms such as memory and cognition.

human subjects = assay: Cerebral blood flow after a single dose of clenbuterol and/or nadolol, or pindolol (Example 1); assay type: in vivo
[7] = ASL MRI cerebral perfusion, CuraSen study CLIN-002; assay type: in vivo; conditions: CST-103 80 and 160 μg
From the text: as §4

healthy subjects [8] = assay: Adaptive tracking test; assay type: in vivo, human; conditions: single dose 160 μg clenbuterol
From the text: Adaptive tracking measures visuomotor coordination and vigilance. In this test, the subject uses a joystick to move a small dot so that it stays within a continuously moving circle on a computer screen (Boland 1984). During the test, the speed of the circle is adjusted in response to the subject's ability to keep the dot in the circle, ensuring that the test is adapted to the individual subject. […] The improvement shown by subjects is in the same range as that seen with subjects treated with the acetylcholinesterase inhibitor donepezil, which is in clinical use for the treatment of mild to moderate AD (Groeneveld 2016).

subjects = assay: Visual verbal learning test (VVLT); assay type: in vivo, human; conditions: for effect on the VVLT (learning and memory): crossover study, 3 agents plus placebo
Protocol: Subjects are presented 30 words on a screen, one at a time, for 1 second with a 1-second interval between words over a total of 1 minute. This is repeated in 3 trials. After each trial, subjects are asked to recall as many words as they can. […] Since this was a crossover study, everyone who completed Part A was dosed with the 3 agents plus placebo.

[9] = Plasma pharmacokinetics of clenbuterol and nadolol (Example 6); conditions: human, in vivo
From the text: (§6) Pharmacokinetic (PK) parameters were computed from the individual plasma drug concentrations using a non-compartmental approach.

healthy volunteers [10] = assay: Cerebral blood flow by ASL MRI in healthy volunteers (Example 6)
Protocol: In the 4 cohorts of healthy volunteers, study drug was administered as follows:
All subjects received single oral dose of 20 μg clenbuterol on Day 1, and a single oral dose of 40 μg clenbuterol on Day 8, with ASL MRI scans before and 3 hours after dosing on both days.
All subjects received a single oral dose of 80 μg clenbuterol on Day 1, with ASL MRI scans before, and 3 hours 1 day and 2 days after clenbuterol administration to evaluate the longevity of the ASL MRI signal
ASL MRI scans were conducted before and 3 hours after clenbuterol administration on Day 1 and Day 7.
ASL MRI scans were conducted before and 3 hours after clenbuterol administration on Day 2 and Day 9.
All scans were conducted using pseudo continuous ASL MRI. Only subjects with no contraindications to being in a strong magnetic field were evaluated by MRI. Participants were positioned comfortably and supine in the head coil to minimize any motion during the scan with proper back support, and support under the knees for comfort and to reduce motion in the scan, and the head was centered in the head coil and velcro straps or foam padding were used to reduce motion.
Imaging was performed on a GE Signa PET-MR 3T system.
For accurate quantitative measurements of brain structures a high-resolution T1-weighted, 3D volumetric sequences (e.g., MP-RAGE, IR-FSPGR) in the sagittal plane. Scan parameters of the pCASL sequence were: straight axial/transversal slices, labeling duration=1.8s, post-labeling delay=2.0 s, 15-20 cm slab thickness, pCASL average labeling gradient 1 mT/m, pCASL slice selective labelling gradient 10 mT/m, pASL TI1 (QUIPSS II Saturation Time) 800 ms, pASL labeling slab thickness 15-20 cm, 70 volumes, spatial resolution 3 mm in-plane/5 mm through-plane/gap 1 mm, 3D RARE stack-of-spiral or 3D GRASE 4-15 ms readouts, turbo-factor of 8 to 12; echo train of up to 300 ms, 2D EPI Single shot, minimum echo time, and duration 5 min.
Multiple ROIs were evaluated including whole brain, cortex, subcortical, thalamus, amygdala, hippocampus, and cerebellum which were chosen due to their relevance for cognition or alertness, and the periaqueductal grey for its relevance to motor control. Grey matter (GM) masking was applied for reporting of CBF in the GM of these ROIs.
Regional mean CBF values were extracted for each ROI and subsequently, the CBF for each region was compared before and after administration of clenbuterol.
Baseline/Predose versus Postdose change (%) for each subject and each region was calculated as 100*(Postdose_CBF−Baseline_CBF)/(Baseline_CBF). For each region, the cohort summary of CBF change (=mean relative displacement, MRD) was described by the group mean and standard deviation of the individual CBF changes.

clinical = conditions: human, in vivo; for Cmax: po
From the text: as §6

[11] = Prior CuraSen studies of low-dose nadolol (CST-107) on peripheral β2-AR agonist effects; conditions: 1 mg nadolol (CST-107), co-administered with 80 μg CST-103
[12] = system: healthy volunteers and subjects with MCI or PD; conditions: in vivo
Protocol: as §5

[13] = 80 μg clenbuterol, absence of nadolol
[14] = 80 μg clenbuterol, presence of 1 mg nadolol
[15] = doses of 80 and 160 μg clenbuterol

CC(C)(C)NC[C@H](O)c1cccc(C#N)n1 [Compound 03-5, (S)-6-(2-(tert-butylamino)-1-hydroxyethyl)picolinonitrile]
hypokalemia (blood potassium levels) (healthy volunteers [1]; Compound 03-5 monotherapy 0.3 mg-6 mg, Cohorts A1-A5): Dose-dependent increases in hypokalemia | performance in the CANTAB cognition battery [2]: improvements in performance in the CANTAB cognition battery were observed | mean maximum increase in heart rate (healthy volunteers [3]): 7 beats per minute

CC(C)(C)NCC(O)c1cc(Cl)c(N)c(Cl)c1 (stereo not drawn) [clenbuterol]
CBF MRD in the hippocampus, repeat dose comparison (subjects with MCI or PD; Day 2, 4 subjects): 17.55±6.37% | CBF MRD in the hippocampus, repeat dose comparison (subjects with MCI or PD; Day 9, 4 subjects): 14.72±10.56% | CBF mean (±SEM) MRD in hippocampus (subjects with MCI or PD; [13]): 14.7±10.6% | CBF mean (±SEM) MRD in whole brain (subjects with MCI or PD; [13]): 4.8±12.6% | CBF mean (±SEM) MRD in hippocampus (subjects with MCI or PD; [14]): 12.5±5.7% | CBF mean (±SEM) MRD in whole brain (subjects with MCI or PD; [14]): 5.9±8.6% | CBF in multiple brain regions incl. hippocampus and thalamus (subjects with MCI or PD; 80 μg clenbuterol, with and without pre-administration of 1 mg nadolol): Significant increases in CBF | decrease in heart rate from baseline ([4]; 3 hours after 160 μg clenbuterol with pre-administration of 5 mg nadolol): 2.75 bpm | overall safety and tolerability ([4]; all subjects): overall safe and well tolerated | severity of TEAEs ([4]; all subjects enrolled): mild-to-moderate | effects on supine, sitting or standing blood pressure ([4]; clenbuterol in the absence or presence of nadolol): no clinically meaningful effects | subjects with TEAEs considered related to clenbuterol ([4]; healthy volunteers): 12/25 | mean increase in supine heart rate from baseline ([4]; healthy volunteers, 3 hours after 20 μg clenbuterol): 7.5 bpm | mean increase in supine heart rate from baseline ([4]; healthy volunteers, 3 hours after 40 μg clenbuterol): 7.5 bpm | mean increase in supine heart rate from baseline ([4]; healthy volunteers, 3 hours after 80 μg clenbuterol): 9.2-12.38 bpm | mean increase in supine heart rate from baseline ([4]; healthy volunteers, 3 hours after 160 μg clenbuterol): 30.5 bpm | increase in heart rate ([4]; subjects with MCI or PD, 80 μg clenbuterol): 10.67-14.65 bpm | subjects with TEAEs considered related to clenbuterol ([4]; subjects with neurodegenerative disease): 6/8 | cognitive performance (healthy subjects [5]): improves cognitive performance | cerebral perfusion as measured by CBF (healthy subjects [6]; clenbuterol dose of 40 μg): minimal increase | cerebral perfusion as measured by CBF (healthy subjects [6]; clenbuterol doses below 30 μg): do not produce significant cerebral perfusion increases | improvements in perfusion in brain areas relevant to neurodegenerative disorders (healthy subjects [6]; [15]): ~25% | increases in cerebral perfusion in hippocampus and thalamus (healthy subjects [6]; [15]): 20% to 25 | increase in hippocampal perfusion, average (healthy subjects [6]; single dose 80 μg clenbuterol, 6 healthy subjects aged 44-52): 25% | cerebral perfusion (ASL MRI) (healthy subjects [6]; single dose 160 μg clenbuterol, healthy subjects): robust global increase in cerebral perfusion | cerebral blood flow (CBF) relative to baseline (human subjects; single dose clenbuterol 160 μg): robust global increase in cerebral blood flow (CBF); also recorded: positive increase in cerebral blood flow | cerebral blood flow (CBF) relative to baseline (human subjects; single dose clenbuterol 160 μg and nadolol 5 mg): robust global increase in cerebral blood flow (CBF) | cerebral blood flow (CBF) relative to baseline (human subjects; single dose clenbuterol 30 to 160 μg (nadolol 5 mg in some subjects), tracked 3 days): robust global increase in cerebral blood flow (CBF) | cerebral perfusion (ASL MRI) [7]: robust global increase in cerebral perfusion | increase in cerebral perfusion in the hippocampus [7]: up to 28% | increase in cerebral perfusion in the thalamus [7]: up to 15% | performance in adaptive tracking (percent time dot kept within moving circle) (healthy subjects [8]): improved adaptive tracking; also recorded: performance in adaptive tracking improves | cognition as measured by adaptive tracking and word recall (healthy subjects [8]; healthy subjects, preliminary data): improves cognition | effect on the VVLT (learning and memory) (subjects): positive effects on the VVLT | VVLT improvement in correctly recalled words (subjects; immediate and delayed recall, crossover study vs placebo): 1.5 to 2 correctly recalled words | half-life [9]: 12 to 31 h | CBF mean (±SEM) percent relative displacement (MRD) from baseline in the hippocampus (healthy volunteers [10]; 20 μg clenbuterol, no nadolol (first value of the list)): −1.7±1.3% | CBF mean SEM MRD from baseline (healthy volunteers [10]; 160 μg clenbuterol about 2.5 h after 5 mg nadolol (Day 9)): 14.0±6.5% | CBF mean (±SEM) percent relative displacement (MRD) from baseline in the hippocampus (healthy volunteers [10]; 160 μg clenbuterol in the absence of nadolol): 28.5±4.1% | CBF by ASL MRI (healthy volunteers [10]; 20, 40, 80 and 160 μg clenbuterol, absence of nadolol): dose-dependent increase in CBF | CBF change from baseline (healthy volunteers [10]; 3 hours after single dose of 80 μg clenbuterol): increases in CBF from baseline are evident | CBF change from baseline (healthy volunteers [10]; 24 hours after single dose of 80 μg clenbuterol): decreased but still evident | CBF change from baseline (healthy volunteers [10]; 48 hours after single dose of 80 μg clenbuterol): returned to baseline

CC(C)(C)NCC(O)COc1cccc2c1CC(O)C(O)C2 (stereo not drawn) [nadolol]
TEAEs considered related to nadolol ([4]; all subjects enrolled): No TEAEs | side effects of β2-agonist (increased heart rate, tremor, palpitations) ([4]; pre-administration of nadolol): mostly eliminated | half-life (clinical): 7 to 13 h | Cmax (clinical; 1 mg): 1 to 1.5 ng/mL | Cmax (clinical; 4 mg): 2.8 to 4 ng/mL | attenuation of peripheral β2-AR agonist effects (heart rate, palpitations, tremors, potassium, glucose) [11]: could attenuate these peripheral effects; also recorded: sufficient to inhibit peripheral β2-AR agonist mediated effects | effect of nadolol on Compound 03-5 increase in heart rate and other peripheral effects (hyperglycemia, hypokalemia) (healthy volunteers [1]; Cohort D1, 1 mg nadolol pre-administered, Compound 03-5 orally up to 6 mg): substantially attenuated | effect of nadolol on peripheral effects of Compound 03-5 (heart rate, glucose, potassium, tachycardia, tremor, palpitations) (healthy volunteers [1]; Cohort D1, nadolol 1 mg up to 40 mg pre-administered, Compound 03-5 3-12 mg): blocked the peripheral effects | effect of nadolol on peripheral effects of Compound 03-5 on heart rate, etc. (healthy volunteers [1]; Cohort D2, nadolol 3 mg pre-administered, Compound 03-5 1-10 mg): similarly blocked the peripheral effects | effects of Compound 03-5 on blood glucose and potassium, tachycardia, tremor and palpitations (healthy volunteers [1]; pre-administration of 1 mg nadolol, 6 mg Compound 03-5): Concomitant attenuation | hypokalemia caused by Compound 03-5 (healthy volunteers [1]; subjects dosed with nadolol 1-40 mg, Cohorts D1 and D2): attenuation of hypokalemia | increase in heart rate after 80 μg clenbuterol [12]: effectively blocked

CC(C)NCC(O)COc1cccc2[nH]ccc12 (stereo not drawn) [pindolol]
effect on the VVLT (learning and memory) (subjects): detrimental effect

CC(C)(C)NCC(O)c1ccc(O)c(CO)c1 (stereo not drawn) [salbutamol]
effect on the VVLT (learning and memory) (subjects): positive effects on the VVLT
